This note sets out measurements from patent publication US20240228497A1, “Pyrrolo[2, 3-b]Pyrazine-Based Bifunctional Compounds as HPK1 Degraders and the Use Thereof” (BeiGene, Ltd., priority 2021, published 2024).

In test [1] the test system is pSLP76 (S376) level in Jurkat cell line. Briefly: Cellular pSLP76(S376) HTRF Assay in Jurkat cells. It counts as cell-based. Particulars: 2 h compound treatment, stimulated with 0.05 μg/mL anti-human CD3 (OKT3) for 30 min. The procedure:
Cellular pSLP76(S376) HTRF Assay
Jurkat cell line was used in this study. Cells were maintained in RPMI 1640 supplemented with heat-inactivated 10% fetal bovine serum (Thermo Fisher), 50 units/mL penicillin and streptomycin (Thermo Fisher) and kept at 37° C. in a humidified atmosphere of 5% CO2 in air. Cells were reinstated from frozen stocks that were laid down within 30 passages from the original cells purchased. After cell starvation in the assay buffer (RPMI 1640 supplemented with heat-inactivated 0.1% fetal bovine serum) for 18 hours, cells were seeded into a round bottom 96-well plate at 150,000 cells per well density. Cells were treated with a 9-point dilution series of test compounds. The final compound concentration is from 0 to 2 μM. After 2 h compound treatment, cells were stimulated with 0.05 μg/mL anti-human CD3 (OKT3, Bioxcell) for 30 min at 37° C. Then the cells were lysed, and the pSLP76 (S376) level in the cell lysates was detected by HTRF kit (Cisbio). A total of 16 μL of cell lysate from each well of a 96-well plate was transferred to a 384-well small volume white assay plate. Lysate from each well was incubated with 2 μL of Eu^3+-cryptate (donor) labeled anti-phospho-SLP76 and 2 μL of D2 (acceptor) labeled anti-phospho-SLP76 antibodies (Cisbio) overnight in dark at room temperature. FRET signals (655 nm) were measured using a PHERAstar FSX reader (BMG Labtech). IC50 determination was performed by fitting the curve of percent inhibition versus the log of the inhibitor concentration using Dotmatics.

Test [2] deals with T1, HPK1 kinase (aa1-346, Life Technologies) (Homo sapiens, UniProt Q92918).
T1 construct: HPK1 kinase (aa1-346, Life Technologies); purchased Life Technologies
T1 sequence (Q92918 1-346): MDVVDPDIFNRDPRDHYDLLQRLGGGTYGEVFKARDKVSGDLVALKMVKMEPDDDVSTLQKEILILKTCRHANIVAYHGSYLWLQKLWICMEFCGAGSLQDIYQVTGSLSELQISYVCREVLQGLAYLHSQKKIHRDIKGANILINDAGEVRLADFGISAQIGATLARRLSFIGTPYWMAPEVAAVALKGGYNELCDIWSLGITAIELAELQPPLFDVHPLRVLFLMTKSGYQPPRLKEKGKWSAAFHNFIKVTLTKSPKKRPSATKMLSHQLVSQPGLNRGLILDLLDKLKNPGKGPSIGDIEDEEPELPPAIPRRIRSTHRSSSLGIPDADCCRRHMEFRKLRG
Briefly: HPK Kinase Activity Assay at 1 mM ATP (TR-FRET). It counts as biochemical. Particulars: HPK1 kinase 40 nM, 0.5 μM STK1 substrate, 60 min preincubation, read-out: Enzymatic activity IC50. The method, then:
HPK Kinase Activity Assay at 1 mM ATP
Compounds disclosed herein were tested for inhibition of HPK1 kinase (aa1-346, Life Technologies) activity in assays based on the time-resolved fluorescence-resonance energy transfer (TR-FRET) methodology. The assays were carried out in 384-well low volume black plates in a reaction mixture containing HPK1 kinase (40 nM), 1 mM ATP, 0.5 μM STK1 substrate and 0-10 μM compound in buffer containing 50 mM HEPES, 0.01% BSA, 0.1 mM Orthovanadate, 10 mM MgCl2, 1 mM DTT, pH=7.0, 0.005% Tween-20. The kinase was incubated with the compounds disclosed herein or DMSO for 60 minutes at room temperature and the reaction was initiated by the addition of ATP and STK1 substrate. After reaction at room temperature for 120 minutes, an equal volume of stop/detection solution was added according to the manufacture's instruction (CisBio). The stop/detection solution contained STK Antibody—Cryptate and XL665-conjugated streptavidin in Detection Buffer. The TR-FRET signals (ratio of fluorescence emission at 665 nm over emission at 620 nm with excitation at 337 nm wavelength) were recorded on a PHERAstar FS plate reader (BMG Labtech). Phosphorylation of STK1 substrate led to the binding of STK Antibody—Cryptate to the biotinylated STK1 substrate, which places fluorescent donor (Eu^3+ crypate) in close proximity to the accepter (Streptavidin-XL665), thus resulting in a high degree of fluorescence resonance energy transfer. The inhibition of HPK1 in presence of increasing concentrations of compounds was calculated based on the ratio of fluorescence at 665 nm to that at 620 nm. IC50 determination was performed by fitting the curve of percent inhibition versus the log of the inhibitor concentration using Dotmatics.
In general terms: Time-resolved FRET reads energy transfer from a long-lived donor to a nearby acceptor.

The target in the next test is T2, HPK1 protein (Homo sapiens, UniProt Q92918).
T2 construct: host or cells: human PBMC (CD4+ and CD8+ T cells gated in the FACS assay)
Briefly: HPK1 Protein Degradation Assay in Human PBMC (FACS). It counts as cell-based. The following applies: 24 h compound treatment. The method, then: HPK1 Protein Degradation Assay in Human PBMC (FACS)
Human PBMCs (AllCells) was used in this study. Cells were thawed one day in advance and maintained in RPMI-1640 supplemented 10% fetal bovine serum (Thermo Fisher), 50 units/mL penicillin and streptomycin (Thermo Fisher) and the mixture was kept at 37° C. in a humidified atmosphere air containing 5% CO2. 3×10^6 PBMCs per well in 95 μL culture medium were seed in the 96-well plate, and the cells were treated with an appropriate dilution series of compounds. After 24 h compound treatment, 100 μL 1xLyse/Fix buffer (BD, diluted with water, warm up in 37° C.) was added to cells and the cells were incubated at 37° C. for 10 minutes. After fixed, the cells were transferred to V-bottom plates (Corning), and washed with FACS buffer (cold 2% FBS DPBS). The cells were permeabilized by adding 100 μL pre-chilled BD Phosflow Perm Buffer III (BD) for 30 min on ice. After washed with FACS buffer twice, the cells were incubated with 50 μL antibody cocktail (HPK1(CST)(1:50), anti-human CD4 BV421 (BD)(1:25), anti-human CD8 APC(BD) (1:25)) at room temperature for 1 h. After washed with FACS buffer twice, the cells were further incubated with 50 μL secondary antibody cocktail (Biolegend) (1:50) at room temperature for 1 h. After washed with FACS buffer twice, the signals were detected by BD FACS Celesta. The data were analyzed by Excel and GraphPad Prism 8.

Setting [3] is: CD4+ T Cells, read-out: Protein degradation DC50, CD4+ T Cells.
Where [4] appears, read: CD4+ T Cells, read-out: Protein degradation Dmax, CD4+ T Cells.
Where [5] appears, read: CD8+ T Cells, read-out: Protein degradation DC50, CD8+ T Cells.
[6] abbreviates: CD8+ T Cells, read-out: Protein degradation Dmax, CD8+ T Cells.

As usually defined, the pIC50 is the IC50 on a negative log10 scale, so that one unit is a factor of ten. Broadly, the DC50 is the midpoint of the concentration-degradation curve. As a reminder, the Dmax is the largest share of the target that was removed.

pIC50: −log10 of the molar value. Read-outs that look alike come from different tables or passages of the source.

T2 sequence (Q92918 whole entry): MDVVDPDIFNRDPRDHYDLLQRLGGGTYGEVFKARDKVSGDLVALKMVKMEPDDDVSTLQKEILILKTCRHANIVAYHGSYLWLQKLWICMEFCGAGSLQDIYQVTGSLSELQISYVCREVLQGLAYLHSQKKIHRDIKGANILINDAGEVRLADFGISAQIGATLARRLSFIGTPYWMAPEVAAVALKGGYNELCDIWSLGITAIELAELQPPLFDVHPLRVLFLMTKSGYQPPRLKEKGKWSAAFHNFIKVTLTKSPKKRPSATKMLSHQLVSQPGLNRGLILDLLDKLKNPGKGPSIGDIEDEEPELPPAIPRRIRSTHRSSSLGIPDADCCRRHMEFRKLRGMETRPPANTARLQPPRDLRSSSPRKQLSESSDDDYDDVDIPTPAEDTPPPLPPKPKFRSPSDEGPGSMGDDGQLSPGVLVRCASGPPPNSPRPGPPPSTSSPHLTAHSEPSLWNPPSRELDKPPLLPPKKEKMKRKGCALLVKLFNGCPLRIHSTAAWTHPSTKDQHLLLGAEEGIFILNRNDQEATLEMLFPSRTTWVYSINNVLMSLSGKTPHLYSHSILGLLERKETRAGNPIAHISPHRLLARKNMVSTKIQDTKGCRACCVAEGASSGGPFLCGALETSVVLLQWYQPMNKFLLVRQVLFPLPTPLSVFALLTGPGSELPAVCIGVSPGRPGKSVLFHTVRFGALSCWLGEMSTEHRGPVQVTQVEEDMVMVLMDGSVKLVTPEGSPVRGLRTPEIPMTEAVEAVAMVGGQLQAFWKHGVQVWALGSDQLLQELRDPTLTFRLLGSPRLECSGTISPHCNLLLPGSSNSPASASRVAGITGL

Turning to `Cc1cc(-c2cnc3[nH]cc(-c4ccc(C(=O)N(C)C)cc4)c3n2)cc2c1CN(CCC(=O)N1CCN(c3ccc(N4CCC(=O)NC4=O)cc3)CC1)CC2` [Example 5, 4-(2-(2-(3-(4-(4-(2,4-dioxotetrahydropyrimidin-1(2H)-yl)phenyl)piperazin-1-yl)-3-oxopropyl)-8-methyl-1,2,3,4-tetrahydroisoquinolin-6-yl)-5H-pyrrolo[2,3-b]pyrazin-7-yl)-N,N-dimethylbenzamide], the pIC50 is 6.94 in test [1] and 7.62 in test [2]. In addition, on HPK1 protein (CD4+ T Cells), the “Protein degradation DC90, CD4+ T Cells” value stood at 60 nM. The 50% degradation concentration (DC50) on HPK1 protein (setting [3]) was determined as 9 nM; at HPK1 protein (setting [5]), 17 nM. Besides, the results for the greatest degradation seen (Dmax) on HPK1 protein (setting [4]) and on HPK1 protein (setting [6]) were 95% and 96%, respectively. For the same compound, the “Protein degradation DC90, CD8+ T Cells” value at HPK1 protein (CD8+ T Cells) is recorded as 128 nM.
For the compound `Cc1cc(-c2cnc3[nH]cc(-c4ccc(C(=O)N(C)C)cc4)c3c2)cc2c1CN(CCC(=O)N1CCN(c3ccc(N4CCC(=O)NC4=O)cc3)CC1)CC2` [Example 6, 4-(5-(2-(3-(4-(4-(2,4-dioxotetrahydropyrimidin-1(2H)-yl)phenyl)piperazin-1-yl)-3-oxopropyl)-8-methyl-1,2,3,4-tetrahydroisoquinolin-6-yl)-1H-pyrrolo[2,3-b]pyridin-3-yl)-N,N-dimethylbenzamide], the negative-log IC50 (pIC50) in test [1] was 7.06; in test [2] it was 7.51. Also, at HPK1 protein (CD4+ T Cells), the “Protein degradation DC90, CD4+ T Cells” value was found to be 52 nM. In addition, the results for the DC50 at HPK1 protein (setting [3]) and on HPK1 protein (setting [5]) were 11 nM and 16 nM, respectively. Also, the greatest degradation seen (Dmax) at HPK1 protein (setting [4]) and at HPK1 protein (setting [6]) was 96% throughout. Further, the “Protein degradation DC90, CD8+ T Cells” value on HPK1 protein (CD8+ T Cells) is given as 104 nM.
In the case of `Cc1cc(-c2cnc3[nH]cc(-c4ccc(C(=O)N(C)C[C@H](C)O)cc4)c3n2)cc2c1CN(CCC(=O)N1CCN(c3ccc(N4CCC(=O)NC4=O)cc3)CC1)CC2` [Example 7, (S)-4-(2-(2-(3-(4-(4-(2,4-dioxotetrahydropyrimidin-1(2H)-yl)phenyl)piperazin-1-yl)-3-oxopropyl)-8-methyl-1,2,3,4-tetrahydroisoquinolin-6-yl)-5H-pyrrolo[2,3-b]pyrazin-7-yl)—N-(2-hydroxypropyl)—N-methylbenzamide], the figures for the negative logarithm of the IC50 (pIC50) in test [1] and in test [2] were 6.51 and 7.70, respectively. In addition, the “Protein degradation DC90, CD4+ T Cells” value on HPK1 protein (CD4+ T Cells) amounted to 118 nM. Besides, the DC50 came to 25 nM on HPK1 protein (setting [3]) and 45 nM on HPK1 protein (setting [5]). In addition, the Dmax at HPK1 protein (setting [4]) and on HPK1 protein (setting [6]) was 95% throughout. For the same compound, the “Protein degradation DC90, CD8+ T Cells” value at HPK1 protein (CD8+ T Cells) was 388 nM.
Regarding `Cc1cc(-c2c[nH]c3ncc(-c4cc(C)c5c(c4)CCN(CCNC(=O)CC4CCN(c6ccc(C7CCC(=O)NC7=O)cc6)CC4)C5)nc23)ccc1C(=O)N(C)C` (stereo not shown) [Example 8, 4-(2-(2-(2-(2-(1-(4-(2,6-dioxopiperidin-3-yl)phenyl)piperidin-4-yl)acetamido)ethyl)-8-methyl-1,2,3,4-tetrahydroisoquinolin-6-yl)-5H-pyrrolo[2,3-b]pyrazin-7-yl)-N,N,2-trimethylbenzamide], the negative-log IC50 (pIC50) in test [1] is 6.30; in test [2], 6.53.
In the case of `Cc1cc(-c2cnc3[nH]cc(-c4ccc(C(=O)N(C)C[C@H](C)O)cc4)c3c2)cc2c1CN(CCC(=O)N1CCN(c3ccc(N4CCC(=O)NC4=O)cc3)CC1)CC2` [Example 9, (S)-4-(5-(2-(3-(4-(4-(2,4-dioxotetrahydropyrimidin-1(2H)-yl)phenyl)piperazin-1-yl)-3-oxopropyl)-8-methyl-1,2,3,4-tetrahydroisoquinolin-6-yl)-1H-pyrrolo[2,3-b]pyridin-3-yl)-N-(2-hydroxypropyl)-N-methylbenzamide], the figures for the negative-log IC50 (pIC50) in test [1] and in test [2] were 6.74 and 7.80, respectively. Further, at HPK1 protein (CD4+ T Cells), the “Protein degradation DC90, CD4+ T Cells” value is on record as 77 nM. The DC50 on HPK1 protein (setting [3]) stood at 19 nM; at HPK1 protein (setting [5]) it was 71 nM. Besides, the maximal degradation (Dmax) on HPK1 protein (setting [4]) stood at 93%; on HPK1 protein (setting [6]) it was 95%. The “Protein degradation DC90, CD8+ T Cells” value at HPK1 protein (CD8+ T Cells) is 495 nM.
